Measured values: the NIST ThermoML archive (doi:10.1021/je201080c)
Numbers after ± are expanded uncertainties.

Experiments:
[1] = for viscosity / mass density: 101.33 kPa, Liquid; for viscosity: Surface Light Scattering; for mass density: Vibrating tube method; for surface tension liquid-gas: Pendant drop shape
[2] = refractive index (Na D-line) (dimensionless); settings: 101.33 kPa, Liquid, Standard Abbe refractometry

CCn1cc[n+](C)c1.N#C[B-](C#N)(C#N)C#N [1-ethyl-3-methylimidazolium tetracyanoborate]
Settings	mass density, [1] [kg/m3]	refractive index, [2]	surface tension liquid-gas, [1] [mN/m]	viscosity, [1] [mPa·s]
283.15 K	1048.33 ± 0.95	1.4533 ± 0.0012	–	37.06 ± 1.2
288.15 K	1044.31 ± 0.95	–	–	27.75 ± 0.93
293.15 K	1040.31 ± 0.94	1.4499 ± 0.0012	–	21.79 ± 0.71
297.04 K	–	–	47.09 ± 1.1	–
298.15 K	1036.34 ± 0.93	–	–	–
303.15 K	1032.4 ± 0.92	1.4465 ± 0.0012	–	14.65 ± 0.48
308.15 K	1028.48 ± 0.92	–	–	–
313.15 K	1024.59 ± 0.91	1.4432 ± 0.0012	43.29 ± 1	10.09 ± 0.33
318.15 K	1020.72 ± 0.9	–	–	–
323.15 K	1016.87 ± 0.89	–	41.6 ± 1	7.61 ± 0.24
328.15 K	1013.06 ± 0.89	–	–	–
333.15 K	1009.26 ± 0.88	–	39.53 ± 0.95	5.77 ± 0.18
338.15 K	1005.49 ± 0.87	–	–	–
343.15 K	1001.74 ± 0.87	–	38.33 ± 0.92	4.67 ± 0.15
348.15 K	998.01 ± 0.86	–	–	–
353.15 K	994.28 ± 0.86	–	36.52 ± 0.88	3.7 ± 0.12
358.15 K	990.59 ± 0.85	–	–	–
363.15 K	986.92 ± 0.85	–	35.8 ± 0.86	3.16 ± 0.1
